Data on 10 molecules can be found in ChEMBL document CHEMBL1148870, “Novel inhibitors of VEGF receptors-1 and -2 based on azole-5-carboxamide templates” (Bioorg Med Chem Lett, 2007).

Data set [1] addresses Vascular endothelial growth factor receptor 1 (Homo sapiens, UniProt P17948). Put plainly: Inhibition of VEGFR1 assessed as inhibition of phosphorylation in presence of 2 uM ATP by HTRF assay. Type of data set: functional. For orientation: In TR-FRET formats the signal depends on donor and acceptor labels being close together.
Data set [2] concerns the target T1, Vascular endothelial growth factor receptor 2 (Homo sapiens, UniProt P35968). Put plainly: Inhibition of VEGFR2 assessed as inhibition of phosphorylation in presence of 2 uM ATP by HTRF assay. In kind it is functional.
The target in data set [3] is T1, Vascular endothelial growth factor receptor 2. Put plainly: Inhibition of VEGFR2 assessed as inhibition of phosphorylation in human 293 cells by cell-based ELISA. In kind it is functional, HEK293. For orientation: An ELISA detects its analyte on a solid surface through an enzyme-linked reagent.
Data set [4] has the same target. Description: Displacement of [32P]ATP from human VEGFR2 after 45 mins.
The target in data set [5] is Insulin-like growth factor 1 receptor (Homo sapiens) (UniProt P08069). Put plainly: Inhibition of IGF1R at 10 uM. Further details: scale not given: the % may be the effect or the level left; call rule not given here.
For data set [6], the species on record is Homo sapiens. Description: Inhibition of InR at 10 uM. Further details: scale not given: the % may be the effect or the level left.
Data set [7] addresses Fibroblast growth factor receptor 1 (Homo sapiens) (UniProt P11362). Put plainly: Inhibition of FGFR1 at 10 uM. Also on record: scale not given: the % may be the effect or the level left.
For data set [8], the target named is Receptor-type tyrosine-protein kinase FLT3 (Homo sapiens) (UniProt P36888). Description: Inhibition of Flt3 at 10 uM. Further details: scale not given: the % may be the effect or the level left.
For data set [9], the target named is Vascular endothelial growth factor receptor 3 (Homo sapiens) (UniProt P35916). Description: Inhibition of Flt4 at 10 uM. Further details: scale not given: the % may be the effect or the level left.
For data set [10], the target named is Epidermal growth factor receptor (Homo sapiens) (UniProt P00533). Put plainly: Inhibition of ErbB1 at 10 uM. Further details: scale not given: the % may be the effect or the level left.
Data set [11] concerns the target Receptor tyrosine-protein kinase erbB-2 (Homo sapiens) (UniProt P04626). Put plainly: Inhibition of ErbB2/Her2 at 10 uM. Also on record: scale not given: the % may be the effect or the level left.
Data set [12] has as its target Hepatocyte growth factor receptor (Homo sapiens) (UniProt P08581). Description: Inhibition of cMet at 10 uM. Also on record: scale not given: the % may be the effect or the level left.
For data set [13], the species on record is Homo sapiens. Put plainly: Inhibition of PKA at 10 uM. Further details: scale not given: the % may be the effect or the level left.
For data set [14], the target named is Glycogen synthase kinase-3 beta (Homo sapiens) (UniProt P49841). Put plainly: Inhibition of GSK3-beta at 10 uM. Further details: scale not given: the % may be the effect or the level left.
Data set [15] addresses RAC-alpha serine/threonine-protein kinase (Homo sapiens) (UniProt P31749). Description: Inhibition of PKB/Akt at 10 uM. Further details: scale not given: the % may be the effect or the level left.
For data set [16], the species on record is Homo sapiens. Put plainly: Inhibition of bcr-Abl at 10 uM. Also on record: scale not given: the % may be the effect or the level left.
For data set [17], the species on record is Homo sapiens. Description: Inhibition of Cdk1 at 10 uM. Also on record: scale not given: the % may be the effect or the level left.
The target of data set [18] is RAF proto-oncogene serine/threonine-protein kinase (Homo sapiens) (UniProt P04049). Description: Inhibition of Raf1 at 10 uM. Also on record: scale not given: the % may be the effect or the level left.
The target in data set [19] is Cyclin-dependent kinase 2 (Homo sapiens) (UniProt P24941). Put plainly: Inhibition of Cdk2 at 10 uM. Also on record: scale not given: the % may be the effect or the level left.
A short description of data set [20]: Passive diffusion assessed as intrinsic permeability across Caco-2 cell membrane. In kind it is ADME, cell-based. To be noted: human, read-out: permeability (converted).
In a further data set the test system is Caco-2. Put plainly: Passive diffusion assessed as absorption potential across Caco-2 cell membrane. In kind it is ADME, cell-based. The settings on record: human.

Sequence of Fibroblast growth factor receptor 1 (Homo sapiens) (P11362 22-822 limits assumed): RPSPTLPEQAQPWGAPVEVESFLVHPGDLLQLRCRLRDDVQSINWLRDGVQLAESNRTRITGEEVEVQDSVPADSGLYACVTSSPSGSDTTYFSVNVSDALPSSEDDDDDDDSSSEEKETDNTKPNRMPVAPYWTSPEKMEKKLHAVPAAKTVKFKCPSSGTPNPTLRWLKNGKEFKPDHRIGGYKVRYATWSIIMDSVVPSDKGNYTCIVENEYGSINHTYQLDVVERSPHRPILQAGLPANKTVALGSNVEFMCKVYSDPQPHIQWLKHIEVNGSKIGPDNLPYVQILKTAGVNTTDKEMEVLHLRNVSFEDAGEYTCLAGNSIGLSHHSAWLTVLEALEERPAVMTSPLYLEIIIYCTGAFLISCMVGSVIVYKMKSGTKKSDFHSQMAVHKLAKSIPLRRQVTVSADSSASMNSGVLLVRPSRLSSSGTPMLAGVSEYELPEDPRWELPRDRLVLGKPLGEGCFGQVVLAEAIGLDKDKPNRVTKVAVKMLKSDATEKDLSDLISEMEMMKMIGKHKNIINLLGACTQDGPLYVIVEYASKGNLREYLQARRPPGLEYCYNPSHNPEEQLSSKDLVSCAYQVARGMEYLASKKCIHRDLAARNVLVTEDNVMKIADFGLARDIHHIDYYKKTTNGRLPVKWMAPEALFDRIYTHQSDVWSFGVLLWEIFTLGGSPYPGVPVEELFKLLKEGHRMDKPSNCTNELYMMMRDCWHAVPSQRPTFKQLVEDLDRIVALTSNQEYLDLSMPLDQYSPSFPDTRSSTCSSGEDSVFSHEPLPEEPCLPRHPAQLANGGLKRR
Sequence of Vascular endothelial growth factor receptor 1 (P17948 whole entry): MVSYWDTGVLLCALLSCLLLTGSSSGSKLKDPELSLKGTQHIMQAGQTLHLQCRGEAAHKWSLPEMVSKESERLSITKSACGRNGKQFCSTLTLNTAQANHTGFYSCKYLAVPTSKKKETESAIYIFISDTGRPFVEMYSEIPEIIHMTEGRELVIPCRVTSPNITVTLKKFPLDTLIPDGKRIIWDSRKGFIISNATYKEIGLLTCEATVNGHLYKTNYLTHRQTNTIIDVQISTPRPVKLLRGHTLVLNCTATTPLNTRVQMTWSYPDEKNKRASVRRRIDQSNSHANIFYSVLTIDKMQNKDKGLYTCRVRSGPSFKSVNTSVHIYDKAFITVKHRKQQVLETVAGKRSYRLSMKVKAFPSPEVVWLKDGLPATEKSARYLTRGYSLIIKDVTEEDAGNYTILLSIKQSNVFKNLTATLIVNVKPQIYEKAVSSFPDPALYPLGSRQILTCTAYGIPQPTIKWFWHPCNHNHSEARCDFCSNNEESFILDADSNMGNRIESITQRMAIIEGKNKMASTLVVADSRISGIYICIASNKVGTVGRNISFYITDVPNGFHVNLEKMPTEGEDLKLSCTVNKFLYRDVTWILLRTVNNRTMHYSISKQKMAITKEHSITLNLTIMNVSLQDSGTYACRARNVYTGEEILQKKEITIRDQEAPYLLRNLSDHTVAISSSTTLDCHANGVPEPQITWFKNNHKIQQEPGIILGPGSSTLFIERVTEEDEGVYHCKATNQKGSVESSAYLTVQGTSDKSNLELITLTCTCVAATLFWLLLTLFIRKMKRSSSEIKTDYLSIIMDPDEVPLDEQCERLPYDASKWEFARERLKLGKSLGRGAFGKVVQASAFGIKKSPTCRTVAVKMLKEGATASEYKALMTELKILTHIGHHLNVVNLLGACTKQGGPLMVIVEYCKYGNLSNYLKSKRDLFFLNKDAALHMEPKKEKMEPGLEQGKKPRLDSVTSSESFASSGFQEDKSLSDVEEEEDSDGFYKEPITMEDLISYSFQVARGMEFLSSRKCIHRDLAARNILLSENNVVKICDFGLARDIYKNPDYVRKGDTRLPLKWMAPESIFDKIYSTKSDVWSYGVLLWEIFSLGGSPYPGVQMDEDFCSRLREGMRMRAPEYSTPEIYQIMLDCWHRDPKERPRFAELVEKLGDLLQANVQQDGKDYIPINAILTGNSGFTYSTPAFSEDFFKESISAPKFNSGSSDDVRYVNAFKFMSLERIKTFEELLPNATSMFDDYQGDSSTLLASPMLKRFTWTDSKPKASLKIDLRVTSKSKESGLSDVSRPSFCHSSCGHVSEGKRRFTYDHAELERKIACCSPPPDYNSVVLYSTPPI
Sequence of Hepatocyte growth factor receptor (Homo sapiens) (P08581 whole entry): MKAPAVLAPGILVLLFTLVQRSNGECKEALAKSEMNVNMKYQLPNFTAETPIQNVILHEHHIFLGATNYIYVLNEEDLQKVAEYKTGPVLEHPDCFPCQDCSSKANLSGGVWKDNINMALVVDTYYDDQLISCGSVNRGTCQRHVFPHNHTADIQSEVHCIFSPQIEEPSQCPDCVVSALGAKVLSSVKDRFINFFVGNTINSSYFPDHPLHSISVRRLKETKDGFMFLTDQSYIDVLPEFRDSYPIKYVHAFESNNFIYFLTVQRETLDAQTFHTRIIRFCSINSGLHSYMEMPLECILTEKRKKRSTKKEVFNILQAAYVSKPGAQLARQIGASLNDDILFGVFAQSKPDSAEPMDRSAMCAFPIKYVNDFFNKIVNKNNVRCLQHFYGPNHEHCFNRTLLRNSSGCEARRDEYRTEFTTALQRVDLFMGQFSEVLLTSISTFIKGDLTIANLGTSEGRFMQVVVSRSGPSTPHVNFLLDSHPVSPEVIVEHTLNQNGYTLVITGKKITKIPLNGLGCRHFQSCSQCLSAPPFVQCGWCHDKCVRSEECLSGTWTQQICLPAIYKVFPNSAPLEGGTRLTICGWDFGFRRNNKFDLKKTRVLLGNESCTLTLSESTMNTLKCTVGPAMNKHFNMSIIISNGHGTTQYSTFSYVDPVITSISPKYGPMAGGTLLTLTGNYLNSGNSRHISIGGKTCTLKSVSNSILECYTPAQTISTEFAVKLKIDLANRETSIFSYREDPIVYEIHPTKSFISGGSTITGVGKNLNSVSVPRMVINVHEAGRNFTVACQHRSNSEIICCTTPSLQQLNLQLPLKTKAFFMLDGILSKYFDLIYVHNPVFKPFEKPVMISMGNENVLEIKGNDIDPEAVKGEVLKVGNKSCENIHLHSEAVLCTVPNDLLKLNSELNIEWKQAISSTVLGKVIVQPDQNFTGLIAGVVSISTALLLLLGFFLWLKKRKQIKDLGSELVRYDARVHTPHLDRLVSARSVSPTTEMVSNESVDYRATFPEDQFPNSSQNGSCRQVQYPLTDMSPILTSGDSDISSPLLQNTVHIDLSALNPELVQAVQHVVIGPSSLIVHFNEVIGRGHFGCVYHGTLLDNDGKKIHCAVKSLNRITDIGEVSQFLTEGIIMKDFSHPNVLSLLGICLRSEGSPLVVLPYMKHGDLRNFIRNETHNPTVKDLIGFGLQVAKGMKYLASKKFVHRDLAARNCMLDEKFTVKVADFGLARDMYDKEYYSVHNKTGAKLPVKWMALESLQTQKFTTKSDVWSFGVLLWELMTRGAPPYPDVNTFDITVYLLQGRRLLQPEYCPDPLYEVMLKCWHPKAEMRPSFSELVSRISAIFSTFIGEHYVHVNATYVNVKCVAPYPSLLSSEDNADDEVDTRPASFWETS
Sequence of Receptor tyrosine-protein kinase erbB-2 (Homo sapiens) (P04626 whole entry): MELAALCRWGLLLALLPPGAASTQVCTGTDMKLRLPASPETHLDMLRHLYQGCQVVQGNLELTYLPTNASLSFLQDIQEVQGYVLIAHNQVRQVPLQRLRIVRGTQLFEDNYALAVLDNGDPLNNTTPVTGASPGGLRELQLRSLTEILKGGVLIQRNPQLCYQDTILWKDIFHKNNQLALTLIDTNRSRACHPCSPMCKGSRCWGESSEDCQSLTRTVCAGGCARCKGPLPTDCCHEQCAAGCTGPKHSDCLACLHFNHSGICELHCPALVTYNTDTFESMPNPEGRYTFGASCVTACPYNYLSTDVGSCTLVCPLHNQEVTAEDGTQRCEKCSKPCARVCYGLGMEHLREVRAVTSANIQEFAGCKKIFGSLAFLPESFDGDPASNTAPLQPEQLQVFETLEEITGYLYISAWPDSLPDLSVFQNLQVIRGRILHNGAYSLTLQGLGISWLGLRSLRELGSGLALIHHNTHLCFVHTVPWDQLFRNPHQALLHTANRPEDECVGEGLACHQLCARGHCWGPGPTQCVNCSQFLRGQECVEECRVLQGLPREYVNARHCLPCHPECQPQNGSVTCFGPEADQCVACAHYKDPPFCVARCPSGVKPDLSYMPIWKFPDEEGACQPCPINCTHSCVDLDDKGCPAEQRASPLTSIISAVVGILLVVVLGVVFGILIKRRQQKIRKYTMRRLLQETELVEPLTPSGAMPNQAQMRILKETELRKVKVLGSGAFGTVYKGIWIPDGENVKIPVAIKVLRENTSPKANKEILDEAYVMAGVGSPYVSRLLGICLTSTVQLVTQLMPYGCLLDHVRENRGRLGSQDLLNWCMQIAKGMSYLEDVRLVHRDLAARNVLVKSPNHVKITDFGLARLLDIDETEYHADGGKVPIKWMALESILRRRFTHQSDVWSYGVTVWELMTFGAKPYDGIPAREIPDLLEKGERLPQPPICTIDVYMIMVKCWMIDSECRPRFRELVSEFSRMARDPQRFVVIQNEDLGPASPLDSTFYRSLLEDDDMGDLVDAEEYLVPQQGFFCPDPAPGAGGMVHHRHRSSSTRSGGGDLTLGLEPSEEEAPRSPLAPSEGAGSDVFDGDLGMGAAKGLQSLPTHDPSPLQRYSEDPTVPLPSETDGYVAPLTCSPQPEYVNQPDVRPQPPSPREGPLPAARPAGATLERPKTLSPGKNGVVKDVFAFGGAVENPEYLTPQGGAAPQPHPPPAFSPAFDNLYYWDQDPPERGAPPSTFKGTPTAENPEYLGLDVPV

As to `O=C(Nc1ccc(C(F)(F)F)c(Cl)c1)c1ccnn1CCc1ccncc1`, the values for the IC50 in [1], in data set [2] and in [3] were 980 nM, 180 nM and 95 nM, respectively. The Ki (as a rule, a measure of affinity in units of concentration, obtained from inhibition or displacement) in data set [2] came to 170 nM; in [4], 160 nM. Moreover, the Activity in data set [5] is over 30%; in the data set listed under Homo sapiens [6] it was over 30%; in data set [7], over 30%; in data set [8] it was over 30%; in data set [9], over 30%; in data set [10] it was under 30%. Further, the Activity (in data set [11]; in data set [12]; in the data set listed under Homo sapiens [13]; in data set [14]; in data set [15]; in the data set filed under Homo sapiens [16]) was over 30% in each case. For the same molecule, the Activity was over 30% in the data set filed under Homo sapiens [17], over 30% in [18], over 30% in data set [19] and “Active” in the data set with Caco-2. The Papp in data set [20] was 4.6 ×10⁻⁶ cm/s.
As for `CC(C)(C)c1ccc(NC(=O)c2ccnn2CCc2ccncc2)cc1`, the IC50 (in general, the concentration at which inhibition is half-maximal) in data set [1] is 590 nM; in data set [2], 42 nM; in data set [3] it was 33 nM. Further, the Ki in data set [2] turned out to be 130 nM; in data set [4], 140 nM. The Activity was over 30% in data set [5]; over 30% in the data set filed under Homo sapiens [6]; over 30% in data set [7]; over 30% in data set [8]; over 30% in data set [9]; under 30% in data set [10]. Also, the Activity (in [11]; in [12]; in the data set filed under Homo sapiens [13]; in [14]; in data set [15]; in the data set listed under Homo sapiens [16]) was over 30% each time. In addition, the Activity in the data set listed under Homo sapiens [17] was over 30%; in data set [18], over 30%; in [19], over 30%; in the data set with Caco-2, “Active”. The Papp in data set [20] is 7.43 ×10⁻⁶ cm/s.
For `O=C(Nc1ccc(OC(F)(F)F)cc1)c1ccnn1CCc1ccncc1`, the IC50 in data set [1] was 190 nM; in [2], 28 nM; in data set [3], 18 nM. The values for the Ki in [2] and in [4] were 90 nM and 80 nM, respectively. The Activity is over 30% in data set [5]; over 30% in the data set listed under Homo sapiens [6]; over 30% in data set [7]; over 30% in data set [8]; over 30% in data set [9]; under 30% in data set [10]. The Activity (in data set [11]; in data set [12]; in the data set filed under Homo sapiens [13]; in data set [14]; in [15]; in the data set filed under Homo sapiens [16]) was over 30% throughout. Further, the Activity in the data set listed under Homo sapiens [17] was over 30%; in data set [18], over 30%; in data set [19], over 30%; with Caco-2, “Active”. For the same molecule, the Papp in data set [20] was 7.03 ×10⁻⁶ cm/s.
Regarding `CC(C)c1ccc(NC(=O)c2ccnn2CCc2ccncc2)cc1`, the results for the half-inhibitory concentration (IC50) in data set [1], in data set [2] and in data set [3] were 440 nM, 74 nM and 53 nM, respectively. The Activity was over 30% in data set [5]; over 30% in the data set filed under Homo sapiens [6]; over 30% in data set [7]; over 30% in [8]; over 30% in [9]; under 30% in data set [10]. Further, the Activity (in data set [11]; in data set [12]; in the data set listed under Homo sapiens [13]; in [14]; in data set [15]; in the data set filed under Homo sapiens [16]) was over 30% throughout. In addition, the Activity is over 30% in the data set filed under Homo sapiens [17], over 30% in [18], over 30% in [19] and “Active” with Caco-2. The Papp in data set [20] is 8.18 ×10⁻⁶ cm/s.
With `O=C(Nc1ccc(C(F)(F)F)cc1)c1ccnn1CCc1ccncc1`, the figures for the IC50 in data set [1], in [2] and in data set [3] were 380 nM, 69 nM and 48 nM, respectively. The Activity in data set [5] was over 30%; in the data set listed under Homo sapiens [6] it was over 30%; in [7], over 30%; in [8], over 30%; in [9], over 30%; in [10] it was under 30%. Moreover, the Activity (in [11]; in data set [12]; in the data set listed under Homo sapiens [13]; in data set [14]; in data set [15]; in the data set listed under Homo sapiens [16]) was over 30% in each case. Moreover, the Activity in the data set filed under Homo sapiens [17] was over 30%; in data set [18] it was over 30%; in data set [19] it was over 30%; in the data set on Caco-2 it was “Active”. Further, the Papp in [20] was 6.42 ×10⁻⁶ cm/s.
Take `CCc1ccc(NC(=O)c2ccnn2CCc2ccncc2)cc1`: the half-inhibitory concentration (IC50) in data set [1] turned out to be 220 nM; in data set [2], 120 nM; in data set [3], 86 nM. In addition, the Activity in [5] was over 30%; in the data set filed under Homo sapiens [6] it was over 30%; in data set [7], over 30%; in data set [8], over 30%; in data set [9] it was over 30%; in data set [10], under 30%. Besides, the Activity (in data set [11]; in data set [12]; in the data set filed under Homo sapiens [13]; in data set [14]; in data set [15]; in the data set listed under Homo sapiens [16]) was over 30% throughout. For the same molecule, the Activity is over 30% in the data set listed under Homo sapiens [17], over 30% in data set [18], over 30% in data set [19] and “Active” in the data set with Caco-2. Also, the Papp in data set [20] is 9.7 ×10⁻⁶ cm/s.
Turning to `O=C(Nc1cnc2ccccc2c1)c1ccnn1CCc1ccncc1`, the IC50 is 380 nM in data set [1], 180 nM in data set [2] and 1220 nM in data set [3]. In addition, the Activity in [5] is over 30%; in the data set listed under Homo sapiens [6] it was over 30%; in [7], over 30%; in [8], over 30%; in data set [9], over 30%; in [10] it was under 30%. Besides, the Activity (in data set [11]; in data set [12]; in the data set listed under Homo sapiens [13]; in data set [14]; in data set [15]; in the data set listed under Homo sapiens [16]) was over 30% throughout. The Activity (in the data set filed under Homo sapiens [17]; in [18]; in data set [19]) was over 30% in each case.
Turning to `O=C(Nc1ccc(C(F)(F)F)c(Cl)c1)c1nccn1CCc1ccncc1`, the IC50 in [1] was determined as 4560 nM; in data set [2], 1310 nM; in data set [3], 4950 nM. Further, the Activity in [5] was over 30%; in the data set filed under Homo sapiens [6], over 30%; in data set [7], over 30%; in [8] it was over 30%; in data set [9], over 30%; in data set [10], under 30%. Besides, the Activity (in data set [11]; in [12]; in the data set listed under Homo sapiens [13]; in data set [14]; in data set [15]; in the data set listed under Homo sapiens [16]) was over 30% each time. The Activity (in the data set listed under Homo sapiens [17]; in data set [18]; in data set [19]) was over 30% throughout.
As to `O=C(Nc1ccc(Cl)cc1)c1ccnn1CCc1cnoc1`, the IC50 in data set [1], in data set [2] and in [3] was over 10000 nM in each case. In addition, the Activity in data set [5] is over 30%; in the data set filed under Homo sapiens [6], over 30%; in data set [7], over 30%; in data set [8] it was over 30%; in data set [9], over 30%; in data set [10], under 30%. Further, the Activity (in [11]; in data set [12]; in the data set filed under Homo sapiens [13]; in [14]; in [15]; in the data set listed under Homo sapiens [16]) was over 30% throughout. Besides, the Activity (in the data set filed under Homo sapiens [17]; in [18]; in [19]) was over 30% each time.
Take `CC(C)(C)c1ccc(NC(=O)c2nccn2CCc2ccncc2)cc1`: the IC50 in data set [1] stood at 3860 nM; in [2] it was 940 nM; in data set [3], 2250 nM. Further, the Activity was over 30% in [5]; over 30% in the data set filed under Homo sapiens [6]; over 30% in data set [7]; over 30% in [8]; over 30% in data set [9]; under 30% in data set [10]. Also, the Activity (in [11]; in [12]; in the data set filed under Homo sapiens [13]; in [14]; in data set [15]; in the data set filed under Homo sapiens [16]) was over 30% each time. Also, the Activity (in the data set listed under Homo sapiens [17]; in data set [18]; in data set [19]) was over 30% throughout.
